Laboratory results as given in article PMC8878452, “A Tale of Toxin Promiscuity: The Versatile Pharmacological Effects of Hcr 1b-2 Sea Anemone Peptide on Voltage-Gated Ion Channels” (Marine Drugs, 2022).
Entries after “also recorded” stand apart in the source; their conditions may differ. Bridges are numbered along the chain shown (N, C = ends). Where no end group is shown, it is not given here.

Tests used:
Shaker = assay: TEVC, Shaker in Xenopus oocytes; assay type: cell-based, Drosophila melanogaster; details: 1 µM, ND96 pH 7.4, 18–22 °C, n ≥ 3
Source text: (§1) For the expression of Kv channels (rKv1.1, rKv1.2, rKv1.3, rKv1.4, rK1.5, rKv1.6, hKv2.1, hKv3.1, rKv4.2, hKv7.1, hKv7.2/7.3, hKv7.4, KQT1 (from the roundworm Caenorhabditis elegans), hKv10.1 (hEAG1), hKv11.1 (hERG1), and Shaker, from Drosophila melanogaster), Nav channels (rNav1.1, rNav1.2, rNav1.3, rNav1.4, hNav1.5, mNav1.6, hNav1.7, hNav1.8, and BgNav (from the cockroach Blattella germanica), as well as the hβ1 and rβ1 subunits, and Cav channels (rCav3.1, hCav3.2, and rCav3.3) in Xenopus oocytes, the linearized plasmids were transcribed using the T7 or SP6 mMESSAGEmMACHINE transcription kit (Ambion, Austin, TX, USA). Mature female animals were purchased from Nasco (Fort Atkinson, WI, USA) and were housed in the Aquatic Facility (KU Leuven) in compliance with the regulations of the European Union (EU) concerning the welfare of laboratory animals as declared in Directive 2010/63/EU. The use of X. laevis oocytes was approved by the Animal Ethics Committee of the KU Leuven, with the license number P186/2019. […]
(§2) Whole-cell currents of oocytes were recorded 1 to 3 days after RNA injection. […] The current–voltage relationships were determined by 50 ms step depolarizations between −90 and +65 mV using 5 or 10 mV increments. All electrophysiological data were analyzed following the procedures described by Peigneur et al., 2012 [20].
(§3) All values were expressed as means ± SEM. […]

KQT1 = assay: TEVC, KQT1 in Xenopus oocytes; assay type: cell-based, Caenorhabditis elegans
Source text: (§4) For the expression of Kv channels (rKv1.1, rKv1.2, rKv1.3, rKv1.4, rK1.5, rKv1.6, hKv2.1, hKv3.1, rKv4.2, hKv7.1, hKv7.2/7.3, hKv7.4, KQT1 (from the roundworm Caenorhabditis elegans), hKv10.1 (hEAG1), hKv11.1 (hERG1), and Shaker, from Drosophila melanogaster), Nav channels (rNav1.1, rNav1.2, rNav1.3, rNav1.4, hNav1.5, mNav1.6, hNav1.7, hNav1.8, and BgNav (from the cockroach Blattella germanica), as well as the hβ1 and rβ1 subunits, and Cav channels (rCav3.1, hCav3.2, and rCav3.3) in Xenopus oocytes, the linearized plasmids were transcribed using the T7 or SP6 mMESSAGEmMACHINE transcription kit (Ambion, Austin, TX, USA). Mature female animals were purchased from Nasco (Fort Atkinson, WI, USA) and were housed in the Aquatic Facility (KU Leuven) in compliance with the regulations of the European Union (EU) concerning the welfare of laboratory animals as declared in Directive 2010/63/EU. The use of X. laevis oocytes was approved by the Animal Ethics Committee of the KU Leuven, with the license number P186/2019.
(§5) Stage V–VI oocytes were collected from anesthetized female X. laevis frog as previously described, with the frogs anesthetized by placement in a 0.1% tricaine solution (amino benzoic acid ethyl ester; Merck, Kenilworth, NJ, USA). Oocyte microinjection was performed using a microinjector (Drummond Scientifc®, Broomall, PA, USA), with a programmed cRNA injection volume of 4–50 nL, depending on channel subtype. The oocytes were incubated in ND96 solution (96 mM NaCl; 2 mM KCl; 1.8 mM CaCl2; 2 mM MgCl2, and 5 mM HEPES, pH 7.4), supplemented with 50 mg/L of gentamicin sulfate.
(§6) Electrophysiological measurements were performed at room temperature (18–22 °C) using the two-electrode voltage-clamp (TEVC) technique. Data were obtained using a GeneClamp 500 amplifier (Axon Instruments®, Burlingame, CA, USA) and Clampex9 software (Axon Instruments®, USA) was responsible for data acquisition and storage. Glass micropipettes were produced using glass capillaries (borosilicate WPI 1B120-6) and drawn in a WPI (World Precision Instruments®, Sarasota, FL, USA) manual stretcher. The bath and perfusion solutions were either the previously described ND96 (Nav and Kv channels) or calcium-free ND96 supplemented with 10 mM BaCl2 (Cav channels).
(§7) Whole-cell currents of oocytes were recorded 1 to 3 days after RNA injection. The current and voltage electrodes were filled with 3 M KCl, and their resistance was adjusted from 1.0 to 2.5 MΩ. Currents were sampled at 20 kHz (Nav channels) and 10 kHz (Kv and Cav channels) and filtered using a four-pole Bessel low-pass Bessel filter at 1 kHz for sodium and […] for potassium and calcium, except for the hERG ion channel in which the currents were filtered at 1 kHz. Leak subtraction was performed using a P/4 protocol. Kv1.x currents were evoked by 500 ms depolarizations to 0 mV, followed by a 500 ms pulse to −50 mV from a holding potential of −90 mV. Kv2.1, Kv3.1, Kv4.2, Kv7.x, and KQT1 currents were elicited by 700 ms pulses to +20 mV from a holding potential of −90 mV. Current traces of the hERG1 channel were elicited by applying a +40 mV prepulse for 2 s, followed by a step of −120 mV for 2 s. […] The current–voltage relationships were determined by 50 ms step depolarizations between −90 and +65 mV using 5 or 10 mV increments. All electrophysiological data were analyzed following the procedures described by Peigneur et al., 2012 [20].
as §3

rNav1.4 = assay: TEVC, Nav1.4 in Xenopus oocytes; assay type: cell-based, rat
Source text: as §4, §5, §6, §7, §3

hKv3.1 = assay: TEVC, Kv3.1 in Xenopus oocytes; assay type: cell-based, human; details: 1 µM, ND96 pH 7.4, 18–22 °C, n ≥ 3
Source text: as §1, §2, §3

rCav3.3 = assay: TEVC, Cav3.3 in Xenopus oocytes; assay type: cell-based, rat
Source text: as §4, §5, §6
(§8) Whole-cell currents of oocytes were recorded 1 to 3 days after RNA injection. The current and voltage electrodes were filled with 3 M KCl, and their resistance was adjusted from 1.0 to 2.5 MΩ. Currents were sampled at 20 kHz (Nav channels) and 10 kHz (Kv and Cav channels) and filtered using a four-pole Bessel low-pass Bessel filter at 1 kHz for sodium and […] for potassium and calcium, except for the hERG ion channel in which the currents were filtered at 1 kHz. Leak subtraction was performed using a P/4 protocol. Kv1.x currents were evoked by 500 ms depolarizations to 0 mV, followed by a 500 ms pulse to −50 mV from a holding potential of −90 mV. Kv2.1, Kv3.1, Kv4.2, Kv7.x, and KQT1 currents were elicited by 700 ms pulses to +20 mV from a holding potential of −90 mV. Current traces of the hERG1 channel were elicited by applying a +40 mV prepulse for 2 s, followed by a step of −120 mV for 2 s. Current traces of hEAG1 were elicited by a 2 s depolarization to 0 mV from a holding potential of −90 mV. Sodium current traces were evoked by a 100 ms depolarization to 0 mV. For Cav channels, current traces were elicited by 700 ms depolarizations to −20 mV from a holding potential of −90 mV. The current–voltage relationships were determined by 50 ms step depolarizations between −90 and +65 mV using 5 or 10 mV increments. All electrophysiological data were analyzed following the procedures described by Peigneur et al., 2012 [20].
(§9) All values were expressed as means ± SEM. Differences in ionic currents between the control and toxin conditions were compared by a one-way ANOVA, followed by Dunnett’s multiple comparisons test. Differences were considered statistically significant when […].

rNav1.1 = assay: TEVC, Nav1.1 in Xenopus oocytes; assay type: cell-based, rat
Source text: as §4, §5, §6, §7, §3

hKv10.1 (hEAG1) = assay: TEVC, Kv10.1 in Xenopus oocytes; assay type: cell-based, human; details: 1 µM, ND96 pH 7.4, 18–22 °C, n ≥ 3
Source text: as §1, §2, §3

hNav1.7 = assay: TEVC, Nav1.7 in Xenopus oocytes; assay type: cell-based, human
Source text: as §4, §5, §6, §8, §9

hNav1.5 = assay: TEVC, Nav1.5 in Xenopus oocytes; assay type: cell-based, human
Source text: as §4, §5, §6, §8, §9

[1] = tested on: T-type voltage-gated calcium channels; assay: TEVC panel of three T-type Cav channels, voltage dependence; assay type: cell-based; details: 1 µM vs control
Source text: as §1, §2, §3

hKv7.4 = assay: TEVC, Kv7.4 in Xenopus oocytes; assay type: cell-based, human
Source text: as §4, §5, §6
as §2, with “injection. The current and voltage electrodes were filled with 3 M KCl, and their resistance was adjusted from 1.0 to 2.5 MΩ.” for “injection.”
as §3

[2] = 1 µM, TEVC, ND96 pH 7.4, 18–22 °C, n ≥ 3
[3] = 1 µM, 100 ms depolarization to 0 mV, mean ± SEM, n ≥ 3
[4] = 1 µM vs control (ND96 Ca2+ free)

Sequence: GTPCKCHGYIGVYWFMLAGCPNGYGYNLSCPYFLGICCVKK (disulfide 4-37, 6-30, 20-38 (inferred)) [Hcr 1b-2]
- effect on potassium current, Shaker (Shaker): activation
- gating-modifier effect (voltage-current relationship), KQT1 (KQT1; 1 µM): stronger shift
- Shift in Vhalf activation, KQT1 (KQT1; 1 µM vs control (ND96)): 7.9 mV
- activity (inhibition of current), KQT1 (KQT1; 1 µM, 700 ms pulse to +20 mV from −90 mV, mean ± SEM, n ≥ 3): 33.4 ± 3.3%
- effect on potassium current, KQT1 (KQT1; [2]): inhibition
- Vhalf activation, KQT1 (KQT1; 1 µM, control (ND96) 14.6 ± 0.4, mean ± SEM): 22.4 ± 0.5 mV
- Shift in Vhalf activation, Nav1.4 (rNav1.4; 1 µM vs control (ND96)): 5.5 mV
- Shift in Vhalf inactivation, Nav1.4 (rNav1.4; 1 µM vs control (ND96)): −1.7 mV
- reduction of peak amplitude (INa), Nav1.4 (rNav1.4; [3]): 29.1 ± 3.0%
- Vhalf activation, Nav1.4 (rNav1.4; 1 µM, control (ND96) −24.4 ± 0.1, mean ± SEM, n ≥ 3): −18.9 ± 0.1 mV
- Vhalf inactivation, Nav1.4 (rNav1.4; 1 µM, control (ND96) −48.5 ± 0.3, mean ± SEM, n ≥ 3): −50.2 ± 0.2 mV
- effect on potassium current, Kv3.1 (hKv3.1): not active
- Shift in Vhalf activation, Cav3.3 (rCav3.3; [4]): −2.2 mV
- Shift in Vhalf inactivation, Cav3.3 (rCav3.3; [4]): −2.1 mV
- higher activity on Cav3.3 than on Cav3.1 (rCav3.3; 1 µM, Cav3.3 vs Cav3.1): 9 fold
- higher activity on Cav3.3 than on Cav3.2 (rCav3.3; 1 µM, Cav3.3 vs Cav3.2): 1.6 fold
- inhibition, Cav3.3 (rCav3.3; 1 µM, calcium-free ND96 + 10 mM BaCl2, 700 ms depolarization to −20 mV from −90 mV, mean ± SEM, n ≥ 3): 58.9 ± 9.4%
- Vhalf activation, Cav3.3 (rCav3.3; 1 µM, control (ND96 Ca2+ free) −41.7 ± 0.4, mean ± SEM, n ≥ 3): −43.9 ± 0.5 mV
- Vhalf inactivation, Cav3.3 (rCav3.3; 1 µM, control (ND96 Ca2+ free) −47.6 ± 0.2, mean ± SEM, n ≥ 3): −49.7 ± 0.3 mV
- Shift in Vhalf activation, Nav1.1 (rNav1.1; 1 µM vs control (ND96)): 0.1 mV
- Shift in Vhalf inactivation, Nav1.1 (rNav1.1; 1 µM vs control (ND96)): −5.8 mV
- reduction of peak amplitude (INa) / inhibition, Nav1.1 (rNav1.1; [3]): 31.2 ± 3.8%
- Vhalf activation, Nav1.1 (rNav1.1; 1 µM, control (ND96) −24.6 ± 0.1, mean ± SEM, n ≥ 3): −24.5 ± 0.1 mV
- Vhalf inactivation, Nav1.1 (rNav1.1; 1 µM, control (ND96) −37.2 ± 0.2, mean ± SEM, n ≥ 3): −43 ± 0.4 mV
- effect on potassium current, Kv10.1 (hKv10.1 (hEAG1)): not active
- effect on activation or inactivation, Nav1.7 (hNav1.7; 1 µM): no significant effect
- Shift in Vhalf activation, Nav1.7 (hNav1.7; 1 µM vs control (ND96)): −2.8 mV
- Shift in Vhalf inactivation, Nav1.7 (hNav1.7; 1 µM vs control (ND96)): −0.5 mV
- reduction of peak amplitude (INa) / inhibition, Nav1.7 (hNav1.7; [3]): 38.7 ± 1.8%
- Vhalf activation, Nav1.7 (hNav1.7; 1 µM, control (ND96) −26.9 ± 0.1, mean ± SEM, n ≥ 3): −29.7 ± 0.1 mV
- Vhalf inactivation, Nav1.7 (hNav1.7; 1 µM, control (ND96) −38.1 ± 0.3, mean ± SEM, n ≥ 3): −38.6 ± 0.4 mV
- effect on activation or inactivation, Nav1.5 (hNav1.5; 1 µM): no significant effect
- Shift in Vhalf activation, Nav1.5 (hNav1.5; 1 µM vs control (ND96)): 3.8 mV
- Shift in Vhalf inactivation, Nav1.5 (hNav1.5; 1 µM vs control (ND96)): −3.2 mV
- reduction of peak amplitude (INa), Nav1.5 (hNav1.5; [3]): 41.6 ± 5.9%
- Vhalf activation, Nav1.5 (hNav1.5; 1 µM, control (ND96) −38.5 ± 0.1, mean ± SEM, n ≥ 3): −34.7 ± 0.1 mV
- Vhalf inactivation, Nav1.5 (hNav1.5; 1 µM, control (ND96) −66.0 ± 0.2, mean ± SEM, n ≥ 3): −69.2 ± 0.2 mV
- changes in voltage–current relationship, Cav3.1–3.3 activation and inactivation [1]: insignificant changes
- gating-modifier effect (voltage-current relationship), Kv7.4 (hKv7.4; 1 µM): stronger shift
- Shift in Vhalf activation, Kv7.4 (hKv7.4; 1 µM vs control (ND96)): 7.1 mV
- effect on potassium current, Kv7.4 (hKv7.4; [2]): inhibition; also recorded: inhibits
- Vhalf activation, Kv7.4 (hKv7.4; 1 µM, control (ND96) 3.8 ± 0.3, mean ± SEM): 10.9 ± 0.3 mV
